Experimental data published in US10307404B1, “Ocular formulations for drug-delivery to the posterior segment of the eye” (priority 2013, dated 2019).
Where two headings read alike, the source gives them in different places.

What was measured:
[1] = PK of topical ocular sodium phosphate-based Gel Drop, concentrations 1 hour after last dose; format: in vivo, Dutch-belted rabbits; conditions: Dutch-belted, rabbit, retina, 3x/day 5 days, read-out: Mean [retina]
Text: The Gel Drop of Compound-I was applied to eyes of Dutch-belted rabbits.

[2] = 1- to 5-day PK, topical ocular Compound-I formulations of Table 8A, 30 μL bilateral dose; format: in vivo, Dutch Belted rabbits
Procedure: On day 1, Groups 1, 2, 4-6, 8, 10, 11, 13, 15, and 17 received one dose (q.d.) for either one (1) or four (4) days.
Peripheral retina and peripheral choroid samples were assayed only for Groups 1-8, 12, 14, and 16 per study protocol.

[3] = Ocular toxicology study, twice daily 0.3% Tris-based suspension, 30 days; format: in vivo, Dutch-Belted rabbits
[4] = 30-day topical ocular tolerability of cyclodextrin-based solutions; format: in vivo
[5] = Group 2 q.d., 1 hr post day 5 morning dose
[6] = Group 2 q.d., 8 hr post day 5 morning dose
[7] = Group 2 q.d., 24 hr post day 5 morning dose
[8] = Group 3 b.i.d., 1 hr post day 5 morning dose
[9] = Group 3 b.i.d., 24 hr post day 5 morning dose
[10] = Group 4 q.d., 1 hr post day 5 morning dose
[11] = Group 5 q.d., 24 hr post day 1 dose
[12] = Group 6 q.d., 1 hr post day 5 morning dose
[13] = Group 6 q.d., 8 hr post day 5 morning dose
[14] = Group 6 q.d., 24 hr post day 5 morning dose
[15] = Group 7 b.i.d., 1 hr post day 5 morning dose
[16] = Group 11 q.d., 24 hr post day 5 morning dose, n = 1

Cl.NC(=O)c1c(OCc2c(F)cc(Br)cc2F)nsc1NC(=O)NCCCCN1CCCC1 [Compound-I, 3-[(4-bromo-2,6-difluorophenyl)methoxy]-5-[[[[4-(1-pyrrolidinyl)butyl]amino]carbonyl]amino]-4-isothiazolecarboxamide hydrochloride]
concentration at 1 h ([1]; 2 mg/ml, pH 6, 2 mg/ml pH 6.0 Phos 0.05% BAK 0.005% Gly 2% PS80 1% Tylox 0.2%): 85.7 nM
concentration at 1 h ([1]; 2 mg/ml, pH 6, 2 mg/ml pH 6.0 Phos 0.05% BAK 0.005% Gly 2%): 113 nM
concentration at 1 h ([1]; 2 mg/ml, pH 6, 2 mg/ml pH 6.0 Phos 0.1% BAK 0.005% Gly 2%): 42.9 nM
concentration at 1 h ([1]; 2 mg/ml, pH 6, 2 mg/ml pH 6.0 Phos 0.2% BAK 0.005% Gly 2%): 34.8 nM
concentration at 1 h ([1]; 4 mg/ml, pH 6, 4 mg/ml pH 6.0 Phos 0.2% BAK 0.005% Gly 2%): 68.3 nM
concentration at 1 h ([1]; 4 mg/ml, pH 6, 4 mg/ml pH 6.0 Phos 2% BAK 0.005% Gly 2% PS80 1% Tylox 0.2%): 97.6 nM
concentration at 24 h ([2]; Dutch Belted, rabbit, cornea, topical, 30 μL bilateral, Group 2 q.d., 24 hr post day 5 morning dose): 29700 nM
Average Concentration, Peripheral Choroid ([2]; Group 1 q.d., 0.5 hr post day 1 dose, LLOQ = 0.0349 μM): <LLOQ
Average Concentration, Central Retina ([2]; Group 1 q.d., 1 hr post day 1 dose, LLOQ = 0.0181 μM): <LLOQ
Average Concentration, Peripheral Choroid ([2]; Group 1 q.d., 1 hr post day 1 dose, n = 1): *0.0856 μM
Average Concentration, Central Retina ([2]; Group 1 q.d., 24 hr post day 1 dose, LLOQ = 0.0181 μM): <LLOQ
concentration at 24 h ([2]; Group 1 q.d., 24 hr post day 1 dose, read-out: Average Concentration, Cornea): 6940 nM
Average Concentration, Aqueous Humor [2, 5]: 0.00996 µM
Average Concentration, Peripheral Choroid [2, 5]: 0.737 µM
Average Concentration, Central Choroid ([2]; Group 2 q.d., 1 hr post day 5 morning dose, n = 1): *0.207 μM
concentration at 24 h ([2]; Group 2 q.d., 1 hr post day 5 morning dose, read-out: Average Concentration, Cornea): 112000 nM
Average Concentration, Aqueous Humor [2, 6]: 0.0165 µM
Average Concentration, Peripheral Choroid [2, 6]: 0.687 µM
Average Concentration, Central Choroid ([2]; Group 2 q.d., 8 hr post day 5 morning dose, n = 1): *0.237 μM
concentration at 24 h ([2]; Group 2 q.d., 8 hr post day 5 morning dose, read-out: Average Concentration, Cornea): 32700 nM
Average Concentration, Aqueous Humor [2, 7]: 0.00336 µM
Average Concentration, Peripheral Choroid [2, 7]: 1.14 µM
Average Concentration, Peripheral Retina [2, 7]: 0.380 µM
Average Concentration, Central Retina ([2]; Group 2 q.d., 24 hr post day 5 morning dose, LLOQ = 0.0181 μM): <LLOQ
Average Concentration, Central Choroid ([2]; Group 2 q.d., 24 hr post day 5 morning dose, n = 1): *0.205 μM
Average Concentration, Aqueous Humor [2, 8]: 0.0142 µM
Average Concentration, Central Choroid [2, 8]: 0.255 µM
concentration at 24 h ([2]; Group 3 b.i.d., 1 hr post day 5 morning dose, read-out: Average Concentration, Cornea): 151000 nM
Average Concentration, Aqueous Humor [2, 9]: 0.00774 µM
Average Concentration, Peripheral Retina [2, 9]: 0.0597 µM
concentration at 24 h ([2]; Group 3 b.i.d., 24 hr post day 5 morning dose, read-out: Average Concentration, Cornea): 82100 nM
Average Concentration, Aqueous Humor [2, 10]: 0.00996 µM
Average Concentration, Central Retina [2, 10]: 0.0431 µM
Average Concentration, Peripheral Choroid [2, 10]: 0.629 µM
Average Concentration, Peripheral Retina [2, 10]: 0.0883 µM
concentration at 24 h ([2]; Group 4 q.d., 1 hr post day 5 morning dose, read-out: Average Concentration, Cornea): 78700 nM
Average Concentration, Aqueous Humor ([2]; Group 5 q.d., 0.5 hr post day 1 dose, LLOQ = 0.000903 μM): <LLOQ
Average Concentration, Central Retina ([2]; Group 5 q.d., 0.5 hr post day 1 dose, LLOQ = 0.0181 μM): <LLOQ
Average Concentration, Peripheral Choroid ([2]; Group 5 q.d., 0.5 hr post day 1 dose, LLOQ = 0.0349 μM): <LLOQ
concentration at 24 h ([2]; Group 5 q.d., 0.5 hr post day 1 dose, read-out: Average Concentration, Cornea): 21000 nM
Average Concentration, Peripheral Retina ([2]; Group 5 q.d., 1 hr post day 1 dose): 0.0253 µM
Average Concentration, Peripheral Retina ([2]; Group 5 q.d., 2 hr post day 1 dose): 0.0253 µM
concentration at 24 h ([2]; Group 5 q.d., 8 hr post day 1 dose, read-out: Average Concentration, Cornea): 7740 nM
Average Concentration, Aqueous Humor [2, 11]: 0.00228 µM
Average Concentration, Peripheral Choroid [2, 11]: 0.116 µM
Average Concentration, Central Retina ([2]; Group 5 q.d., 24 hr post day 1 dose, LLOQ = 0.0181 μM): <LLOQ
Average Concentration, Peripheral Retina ([2]; Group 5 q.d., 24 hr post day 1 dose, n = 1): *0.0103 μM
concentration at 24 h ([2]; Group 5 q.d., 24 hr post day 1 dose, read-out: Average Concentration, Cornea): 2430 nM
Average Concentration, Aqueous Humor [2, 12]: 0.00323 µM
Average Concentration, Central Choroid [2, 12]: 0.319 µM
Average Concentration, Central Retina [2, 12]: 0.0463 µM
Average Concentration, Peripheral Choroid [2, 12]: 0.311 µM
Average Concentration, Peripheral Retina [2, 12]: 0.0634 µM
concentration at 24 h ([2]; Group 6 q.d., 1 hr post day 5 morning dose, read-out: Average Concentration, Cornea): 21800 nM
Average Concentration, Aqueous Humor [2, 13]: 0.00742 µM
Average Concentration, Central Retina [2, 13]: 0.0537 µM
Average Concentration, Peripheral Choroid [2, 13]: 0.257 µM
concentration at 24 h ([2]; Group 6 q.d., 8 hr post day 5 morning dose, read-out: Average Concentration, Cornea): 9100 nM
Average Concentration, Aqueous Humor [2, 14]: 0.00122 µM
Average Concentration, Peripheral Choroid [2, 14]: 0.343 µM
Average Concentration, Peripheral Retina [2, 14]: 0.0533 µM
concentration at 24 h ([2]; Group 6 q.d., 24 hr post day 5 morning dose, read-out: Average Concentration, Cornea): 2330 nM
Average Concentration, Aqueous Humor [2, 15]: 0.00648 µM
Average Concentration, Central Choroid [2, 15]: 0.514 µM
Average Concentration, Central Retina [2, 15]: 0.0469 µM
Average Concentration, Peripheral Choroid [2, 15]: 0.744 µM
Average Concentration, Peripheral Retina [2, 15]: 0.0819 µM
Average Concentration, Aqueous Humor [2, 16]: *0.00205 μM
Average Concentration, Central Choroid [2, 16]: *0.179 μM
Average Concentration, Central Retina [2, 16]: *0.0185 μM
eyes at microscopic evaluation ([3]; 0.3% w/v Tris-based suspension twice daily for 30 days): considered normal
tolerability, clinical ophthalmic examinations ([3]; rabbit, in vivo): well tolerated
findings attributed to test-article or vehicle ([4]; 0.6% cyclodextrin-based solution, 30 days of topical ocular dosing): no untoward findings
ocular toxicity, clinical ophthalmic or microscopic examinations ([4]; rabbit, in vivo): No overt ocular toxicity
tolerability ([4]; rabbit, in vivo): well tolerated
